From US11207319B2, “Method for the treatment of bladder cancer” (Cipla Limited, priority 2015, dated 2021)
Where two headings read alike, the source gives them in different places.

How the values were obtained:
BXF T24 [1] = assay: In vitro 3D clonogenic assay (colony formation in semi-solid medium); type: cell-based, human; conditions: read-out: Absolute IC50 values
Method: (§1) In the present study, terconazole and cisplatin were evaluated for their ability to inhibit anchorage independent growth and ex vivo colony formation of tumor cells in semi-solid medium. The compounds were tested against 5 human tumor cell lines of bladder cancer. Test concentrations ranged, from 0.0316 μM to 316.2 μM (terconazole), or from 0.00316 μM to 100 μM (cisplatin).
(§2) Terconazole and the reference compound cisplatin were investigated for anticancer activity ex vivo in five human tumor cell lines of bladder cancer. Tests were carried out using a 3D clonogenic assay in 96-well format with image based read-out. The aim of the study was to investigate antitumor potency and tumor type selectivity of the compound.
Clonogenic Assay Procedure: The clonogenic assay was carried out in a 96 well plate format using ultra low attachment plates. […] Cultures were incubated at 37° C. and 7.5% CO2 in a humidified atmosphere for 8 to 13 days and monitored closely for colony growth using an inverted microscope. […]

[2] = tested on: five selected human bladder cancer cell lines; assay: In vitro 2D assay, CellTiter-Blue Cell Viability Assay, mean over panel; type: cell-based; conditions: 96 h, read-out: Geometric Mean Absolute IC50 values
Method: (§3) The in-vitro anti-tumor activity of terconazole was assessed in five selected human bladder cancer cell lines. The test compounds were applied at 9 concentrations in half-log increments. As a reference compound cisplatin was tested in parallel. Cells were treated for 96 h with the test compounds. Anti-tumor activity was assessed by using the CellTiter-Blue® Cell Viability Assay. Potency is expressed as absolute IC50 and relative IC50 values, calculated by non-linear regression analysis.
Tumor Cell Lines: In the present study the human bladder cancer cell lines BXF 1036, BXF 1218, BXF 1352, 5637 and T24 were used. BXF 1036, BXF 1218 and BXF 1352 were established at Oncotest from the corresponding human patient derived xenograft. T24 was purchased from ATCC (Rockville, Md., USA) and 5637 was from DSMZ (Braunschweig, Germany). Authenticity of cell lines was confirmed at the DSMZ by STR (short tandem repeat) analysis, a PCR based DNA-fingerprinting methodology. Cell lines were routinely passaged once or twice weekly and maintained in culture for up to 20 passages. […]
Following an incubation period of up to four hours, fluorescence (FU) was measured by using the Enspire Multimode Plate Reader (excitation k=531 nm, emission k=615 nm). […]

BXF T24 [3] = assay: In vitro combination study, 3D clonogenic assay, 5x5 matrix; type: cell-based; conditions: Homo sapiens; monotherapy controls of 5x5 matrix, BXF T24, soft agar; read-out: IC50, colony formation, single agent
Method: (§4) Summary: Terconazole was tested alone and in combination with cisplatin in order to investigate the ability to inhibit tumor cell growth of bladder cancer cell lines in a 5×5 matrix combination format. Efficacy of the combinations was assessed by measuring anchorage-independent growth and in vitro tumor colony formation using a 3D clonogenic assay in cell lines BXF 1036L, BXF 1218L, and BXF T24.
(§5) The objective of this study was to assess anti-tumor efficacy of CIPDE033 and CIPDE034 in combination with cisplatin in a 5×5 matrix combination format against various bladder cancer cell lines. Efficacy of the combinations was assessed by measuring anchorage-independent growth and in vitro tumor colony formation using a 3D clonogenic assay in cell lines BXF 1036L, BXF 1218L, and BXF T24. […]
(§6) Cultivation of Cell Lines: Cell lines were routinely passaged once or twice weekly and maintained in culture for up to 20 passages. […] The percentage of viable cells was determined in a Neubauer-hemocytometer using trypan blue exclusion.
(§7) 3D Clonogenic Assay Procedure: The clonogenic assay was carried out in a 96 well plate format using ultra low attachment plates. […] Cultures were incubated at 37° C. and 7.5% CO2 in a humidified atmosphere for 8 to 13 days and monitored closely for colony growth using an inverted microscope. […]

BXF 1036L = assay: as above; type: cell-based; conditions: Homo sapiens, monotherapy controls of 5x5 matrix, soft agar, read-out: IC50, colony formation, single agent
Method: as §4, §5, §6, §7

HTB-5 = assay: In vitro anticancer activity, bladder carcinoma efficacy models (cytotoxicity/clonogenic); type: cell-based, human; conditions: HTB-5, varied concentrations
Method: (§8) Human bladder cancer cell lines HTB-5, HT-1376 and T-24 were purchased from American Type Culture Collection, USA. Cell lines HTB-5 and HT1376 were routinely cultured in Eagle's Minimum Essential Medium with 10% fetal bovine serum and T-24 in McCoy's 5A medium with 10% fetal bovine serum. All cell lines were maintained at 37° C. in a humidified atmosphere containing 5% CO2.
(§9) In vitro cytotoxicity assay: Cells were plated in 96-well cell culture plates (4×10^3 cells/well) and were treated with drugs at various concentrations. Treated cells were maintained at 37° C. in 5% CO2 for 48 and 72 hrs. After the incubation antiproliferative activity of test compounds was measured using ProMega Cell Titer aqueous one solution cell proliferation assay kit, viz. CellTiter 96® AQueous One Solution Reagent. Cells were incubated for 1-4 hours at 37° C., 5% CO2 incubator and absorbance was measured at 490 nm using a plate reader. IC50 values were determined by plotting compound concentration versus cell viability.
(§10) Clonogenic assay: bladder cancer cell lines viz HTB-5, HT-1376 and T-24 cells were plated at different densities i.e. 300 cells/well and 400 cells/well respectively in 3 ml volume per well into six-well plates and incubated overnight at 37° C. in a 5% CO2 incubator. […] Medium with drug was then replaced with medium without drug and plates were further incubated till visible colonies appeared (approximately for 12-14 days). Cells were then fixed with methanol:glacial acetic acid (2:1) and stained with 0.5% crystal violet. After staining for 2-3 min, plates were rinsed twice with D/W, dried and images were captured.

HT1376 = assay: as above; type: cell-based, human; conditions: HT1376, varied concentrations
Method: as §8, §9, §10

T-24 = assay: as above; type: cell-based, human; conditions: T-24, varied concentrations
Method: as §8, §9, §10

[4] = tested on: 5 human tumor cell lines of bladder cancer; assay: In vitro 3D clonogenic assay, panel summary; type: cell-based; conditions: for IC50: Homo sapiens
Method: as §1, §2
(§11) Clonogenic Assay Procedure: The clonogenic assay was carried out in a 96 well plate format using ultra low attachment plates. For each test, cells were prepared as described above and assay plates were prepared as follows: each test well contained a layer of semi-solid medium with tumor cells (50 and a second layer of medium supernatant with or without test compound (100 The cell layer consisted of 2·10^3 to 3·10^3 tumor cells per well, which were seeded in 50 μL/well cell culture medium (IMDM, supplemented with 20% (v/v) fetal calf serum, 0.01% (w/v) gentamicin, and 0.4% (w/v) agar. After 24 hours the test compounds were added after serial dilution in cell culture medium, and left on the cells for the duration of the experiment (continuous exposure, 100 μl drug overlay). Every plate included six untreated control wells and drug-treated groups in duplicate at 9 concentrations. Cultures were incubated at 37° C. and 7.5% CO2 in a humidified atmosphere for 8 to 13 days and monitored closely for colony growth using an inverted microscope. Within this period, ex vivo tumor growth led to the formation of colonies with a diameter of >50 μm. At the time of maximum colony formation, counts were performed with an automatic image analysis system (Bioreader 5000-Wa Biosys GmbH). 48 hours prior to evaluation, vital colonies were stained with a sterile aqueous solution of 2-(4-iodophenyl)-3-(4-nitrophenyl)-5-phenyltetrazolium chloride (1 mg/ml, 100 μl/well)

BXF 1036 [5] = assay: In vitro 2D assay, CellTiter-Blue Cell Viability Assay; type: cell-based; conditions: Homo sapiens, BXF 1036, 96 h, read-out: Absolute IC50 values
Method: as §3
(§12) Tumor Cell Lines: In the present study the human bladder cancer cell lines BXF 1036, BXF 1218, BXF 1352, 5637 and T24 were used. BXF 1036, BXF 1218 and BXF 1352 were established at Oncotest from the corresponding human patient derived xenograft. T24 was purchased from ATCC (Rockville, Md., USA) and 5637 was from DSMZ (Braunschweig, Germany). Authenticity of cell lines was confirmed at the DSMZ by STR (short tandem repeat) analysis, a PCR based DNA-fingerprinting methodology. Cell lines were routinely passaged once or twice weekly and maintained in culture for up to 20 passages. All cells were grown at 37° C. in a humidified atmosphere with 5% CO2 in RPMI 1640 medium (25 mM HEPES, with L-glutamine, #FG1385, Biochrom, Berlin, Germany) supplemented with 10% (v/v) fetal calf serum (Sigma, Taufkirchen, Germany) and 0.1 mg/mL gentamicin (Life Technologies, Karlsruhe, Germany).
(§13) Cell Proliferation Assay: The CellTiter-Blue® Cell Viability Assay (#G8081, Promega) was used according to manufacturer's instructions. Briefly, cells were harvested from exponential phase cultures, […] on the cell line's growth rate. After a 24 h recovery period to allow the cells to resume exponential growth, test compounds were added. Compounds were applied at 9 concentrations in half-log increments in duplicate and treatment continued for 96 h. After 96 h treatment of cells, 20 μL/well CellTiter-Blue® reagent was added.
(§14) Following an incubation period of up to four hours, fluorescence (FU) was measured by using the Enspire Multimode Plate Reader (excitation k=531 nm, emission k=615 nm). For calculations, the mean values of duplicate/sixfold (untreated control) data were used. Sigmoidal concentration-response curves were fitted to the data points (T/C values) obtained for each cell line using 4 parameter non-linear curve fit (Oncotest Warehouse Software).

BXF 1218 [6] = assay: as above; type: cell-based; conditions: Homo sapiens, BXF 1218, 96 h, read-out: Absolute IC50 values
Method: as §3, §12, §13, §14

BXF 1352 [7] = assay: as above; type: cell-based; conditions: Homo sapiens, BXF 1352, 96 h, read-out: Absolute IC50 values
Method: as §3, §12, §13, §14

BXF T24 [8] = assay: as above; type: cell-based; conditions: Homo sapiens, BXF T24, 96 h, read-out: Absolute IC50 values
Method: as §3, §12, §13, §14

BXF 5637 [9] = assay: as above; type: cell-based; conditions: Homo sapiens, BXF 5637, 96 h, read-out: Absolute IC50 values
Method: as §3, §12, §13, §14

BXF 1036 [10] = assay: In vitro 3D clonogenic assay (colony formation in semi-solid medium); type: cell-based; conditions: Homo sapiens, read-out: Absolute IC50 values
Method: as §1, §2, §11

BXF 1218 [11] = assay: as above; type: cell-based; conditions: Homo sapiens, read-out: Absolute IC50 values
Method: as §1, §2, §11

BXF 1352 [12] = assay: as above; type: cell-based; conditions: Homo sapiens, read-out: Absolute IC50 values
Method: as §1, §2, §11

BXF 5637 [13] = assay: as above; type: cell-based; conditions: Homo sapiens, read-out: Absolute IC50 values
Method: as §1, §2, §11

rat spleen HO-1 = biological target: T1, rat spleen HO-1 (Rattus norvegicus, UniProt P06762); conditions: reported in literature; read-out: IC50, inhibition of rat spleen HO-1 activity; cited from earlier work
T1 construct: host or cells: rat spleen
T1 sequence (P06762 1-289): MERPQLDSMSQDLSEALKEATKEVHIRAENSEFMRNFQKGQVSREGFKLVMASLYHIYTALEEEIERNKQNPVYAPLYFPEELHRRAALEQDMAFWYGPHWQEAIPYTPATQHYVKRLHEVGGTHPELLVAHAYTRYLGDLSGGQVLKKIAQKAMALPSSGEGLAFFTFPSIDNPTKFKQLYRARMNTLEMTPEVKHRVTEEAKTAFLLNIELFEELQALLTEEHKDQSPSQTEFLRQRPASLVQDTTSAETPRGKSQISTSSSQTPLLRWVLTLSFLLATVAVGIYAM

N.N.[Cl][Pt][Cl] [Cisplatin, cisplatin]
IC50 (BXF T24 [1]): 53 µM

CC(C)N1CCN(c2ccc(OC[C@@H]3CO[C@@](Cn4cncn4)(c4ccc(Cl)cc4Cl)O3)cc2)CC1 (racemic) [Terconazole]
IC50 [2]: 39.9 µM
IC50 (BXF T24 [3]): 59.8 µM
IC50 (BXF 1036L): 27.1 µM
anticancer activity in vitro (HTB-5): significant anticancer activity
anticancer activity in vitro (HT1376): significant anticancer activity
anticancer activity in vitro (T-24): significant anticancer activity
Bottom plateaus of the concentration-effect curves ([4]; 3D clonogenic assay, responding tumor models): 0%
IC50 ([4]; read-out: mean relative IC50 value): 33.5 µM
IC50 ([4]; 3D clonogenic assay, colony formation, read-out: IC50 values, range over all bladder cancer cell lines tested): 29.6 to 40.1 µM
IC50 ([4]; 3D clonogenic assay, five cell lines, read-out: Geometric Mean Absolute IC50 values): 33.9 µM
IC50 (BXF 1036 [5]): 29.4 µM
IC50 (BXF 1218 [6]): 46.9 µM
IC50 (BXF 1352 [7]): 45.9 µM
IC50 (BXF T24 [8]): 41.5 µM
IC50 (BXF 5637 [9]): 38.4 µM
IC50 (BXF 1036 [10]): 29.7 µM
IC50 (BXF 1218 [11]): 40.3 µM
IC50 (BXF 1352 [12]): 36.6 µM
IC50 (BXF 5637 [13]): 30.8 µM
IC50 (rat spleen HO-1): 0.41 ± 0.01 µM
IC50 (BXF T24 [1]; Homo sapiens): 33.1 µM
